Assay results published in patent US7994173B2, “2-piperazin-1-yl-3H-imidazo[4,5-b]pyridine derivatives” (Janssen Pharmaceutica N.V., priority 2007, dated 2011).
Counter-ions that a name gives are not always drawn.

Tests used:
[1] = test system: fundus of the stomach (gastric tone); assay: Gastric tone measured by an electronic barostat in conscious dogs; type: in vivo, dog (female beagle); conditions: for Maximum change in volume (Table C-2): I.D.
[2] = test system: fundus of the stomach (gastric tone); assay: as above; type: in vivo, dog (female beagle); conditions: for Maximum change in volume (mean): relaxation of the fundus, 1 hour after I.D. administration, 0.63 mg/kg
Protocol: Gastric tone cannot be measured by manometric methods. Therefore an electronic barostat was used. This allows the study of the physiological pattern and regulation of gastric tone in conscious dogs and the influence of test-compounds on this tone. The barostat consists of an air injection system which is connected by a double-lumen 14-French polyvinyl tube to an ultrathin flaccid polyethylene bag (maximal volume: ±700 ml). Variations in gastric tone were measured by recording changes in the volume of air within an intragastric bag, maintained at a constant pressure. The barostat maintains a constant pressure (preselected) within a flaccid air-filled bag introduced into the stomach, changing the volume of air within the bag by an electronic feedback system. Thus, the barostat measures gastric motor activity (contraction or relaxation) as changes in intragastric volume (decrease or increase resp.) at a constant intragastric pressure. The barostat consists of a strain gauge linked by an electronic relay to an air injection-aspiration system. Both the strain gauge and the injection system are connected by means of double-lumen polyvinyl tube to an ultrathin polyethylene bag. A dial in the barostat allows selection of the pressure level to be maintained within the intragastric bag. Female beagle dogs, weighing 7-17 kg, were trained to stand quietly in Pavlov frames. They were implanted with a gastric cannula under general anaesthesia and aseptic precautions. After a median laparotomy, an incision was made through the gastric wall in longitudinal direction between the greater and the lesser curve, 2 cm above the nerves of Latarjet. The cannula was secured to the gastric wall by means of a double purse string suture and brought out via a stub wound at the left quadrant of the hypochondrium. Dogs were allowed a recovery period of two weeks. At the beginning of the experiment, the cannula was opened in order to remove any gastric juice or food remnants. If necessary, the stomach was cleansed with 40 to 50 ml lukewarm water. The ultrathin bag of the barostat was positioned into the fundus of the stomach through the gastric cannula. In order to ensure easy unfolding of the intragastric bag during the experiment, a volume of 150-200 ml was injected into the bag by raising the pressure to maximally 14 mm Hg (about 1.87 kPa) very briefly. This procedure was repeated twice. After a stabilization period of 60 minutes at an intragastric pressure of 6 mmHg (about 0.81 kPa), the test compound was administered subcutaneously, or intraduodenally, at 2 mmHg (0.27 kPa). […] Table C-1 summarizes the mean maximal change in volume (in ml) on relaxation of the fundus, 1 hour after I.D. administration of the test compound (0.63 mg/kg).

| Compound | melting point [°C] | Maximum change in volume (mean) [2] [mL] | also measured |
| --- | --- | --- | --- |
| Cn1c(N2CCNCC2)nc2cccnc21 | 136 |  |  |
| Cn1c(N2CCN(Cc3cccnc3)CC2)nc2cccnc21 (as salt: HCl) (hydrate or solvate) [Co. No. 3] | 182 |  |  |
| Cn1c(C2CCCN(Cc3ccccc3)CC2)nc2cccnc21 (centres unmarked) [(72) of WO-01/46189, reference compound] |  |  | Maximum change in volume (Table C-2) ([1]; dose 0.16 mg/kg): 45 mL |
| CN(C)c1ccnc2c1nc(N1CCN(Cc3ccccc3)CC1)n2C [Co. No. 9] | 128 |  |  |
| Cn1c(N2CCN(Cc3ccc4c(c3)OCO4)CC2)nc2cccnc21 [Co. No. 10] | 114 |  |  |
| Cn1c(N2CCN(Cc3ccccc3)CC2)nc2cccnc21 [Co. No. 11] | 98 |  |  |
| CCCc1nc2c(cc1C)nc(N1CCN(Cc3ccccc3)CC1)n2C [compound 1] |  | 237 |  |
| Cn1c(N2CCN(Cc3cccnc3)CC2)nc2cccnc21 [compound 3] |  | 154 |  |
| CN(C)c1ccnc2c1nc(N1CCN(Cc3ccccc3)CC1)n2C [compound 9] |  | 185 |  |
| Cn1c(N2CCN(Cc3ccc4c(c3)OCO4)CC2)nc2cccnc21 [compound 10] |  | 251 |  |
| Cn1c(N2CCN(Cc3ccccc3)CC2)nc2cccnc21 [compound 11] |  | 220 | Maximum change in volume (Table C-2) ([1]; dose 0.0025 mg/kg): 83 mL; Maximum change in volume (Table C-2) ([1]; dose 0.01 mg/kg): 157 mL; Maximum change in volume (Table C-2) ([1]; dose 0.04 mg/kg): 146 mL; Maximum change in volume (Table C-2) ([1]; dose 0.16 mg/kg): 180 mL; Maximum change in volume (Table C-2) ([2]; I.D., dose 0.63 mg/kg): 220 mL |
| Cn1c(N2CCNCC2)nc2cccnc21 [compound 14] |  |  | Maximum change in volume (mean) ([1]; relaxation of the fundus, 1 hour after I.D. administration, administered at 0.16 mg/kg (footnote *)): 154.6 mL |
